The values below come from patent US10100058B2, “Fused heterocyclic compounds as CaM kinase inhibitors” (Gilead Sciences, Inc., priority 2016, dated 2018).

The target of this experiment is recombinant CaMKIIδ (Homo sapiens (Human), UniProt Q13557). Briefly: CaMKIIδ biochemical assay (HTRF). Conditions: 10 pM CaMKIIδ, 110 nM calmodulin, 12 μM ATP, 1 hour; read-out: CAMKIID-HTRF-384V2 (IC50 - nM). How it is done:
CaMKIIδ Biochemical Assay
The biochemical activity of recombinant CaMKIIδ was measured by monitoring the phosphorylation of a target peptide using Homogenous Time Resolved Fluorescence (HTRF) technology from CisBio Bioassays.
Background: TR-FRET usually uses a lanthanide donor and a delayed reading to cut background.
`CCN(CC)[C@@H](C)CNC(=O)c1cc(N[C@H](C)CO)nc(-c2cnn3ccc(-c4cccs4)nc23)c1` [Example 199, N—((S)-2-(diethylamino)propyl)-2-(((R)-1-hydroxypropan-2-yl)amino)-6-(5-(thiophen-2-yl)pyrazolo[1,5-a]pyrimidin-3-yl)isonicotinamide]: the half-inhibitory concentration (IC50) – broadly, the point on the concentration scale where inhibition reaches its midpoint – was found to be 0.32 nM.

As to `CCN(CC)[C@@H](C)CNC(=O)c1cc(N[C@@H](C)CO)nc(-c2cnn3ccc(-c4cccs4)nc23)c1` [Example 200, N—((S)-2-(diethylamino)propyl)-2-(((S)-1-hydroxypropan-2-yl)amino)-6-(5-(thiophen-2-yl)pyrazolo[1,5-a]pyrimidin-3-yl)isonicotinamide], the IC50 was 0.16 nM.

`CCN(CC)[C@@H](C)CNC(=O)c1cc(NC[C@H](C)O)nc(-c2cnn3ccc(-c4cccs4)nc23)c1` [Example 201, N—((S)-2-(diethylamino)propyl)-2-(((S)-2-hydroxypropyl)amino)-6-(5-(thiophen-2-yl)pyrazolo[1,5-a]pyrimidin-3-yl)isonicotinamide]: the IC50 turned out to be 0.11 nM.

For the compound `CCN(CC)[C@@H](C)CNC(=O)c1cc(NC[C@@H](C)O)nc(-c2cnn3ccc(-c4cccs4)nc23)c1` [Example 202, N—((S)-2-(diethylamino)propyl)-2-(((R)-2-hydroxypropyl)amino)-6-(5-(thiophen-2-yl)pyrazolo[1,5-a]pyrimidin-3-yl)isonicotinamide], the IC50 was 0.14 nM.

Consider `CCN(CC)[C@@H](C)CNC(=O)c1cc(N[C@H]2CCOC2)nc(-c2cnn3ccc(-c4cccs4)nc23)c1` [Example 203, N—((S)-2-(diethylamino)propyl)-2-(((S)-tetrahydrofuran-3-yl)amino)-6-(5-(thiophen-2-yl)pyrazolo[1,5-a]pyrimidin-3-yl)isonicotinamide], for which the half-inhibitory concentration (IC50) worked out at 0.18 nM.

In the case of `CCN(CC)[C@@H](C)CNC(=O)c1cc(-c2cnn3ccc(-c4cccs4)nc23)nc(N2CCN(C(C)=O)CC2)c1` [Example 204, (S)-2-(4-acetylpiperazin-1-yl)-N-(2-(diethylamino)propyl)-6-(5-(thiophen-2-yl)pyrazolo[1,5-a]pyrimidin-3-yl)isonicotinamide], the IC50 was found to be 0.28 nM.

As to `CCN(CC)[C@@H](C)CNC(=O)c1cc(-c2cnn3ccc(-c4cccs4)nc23)nc(N2CC(NC)C2)c1` [Example 205, (S)—N-(2-(diethylamino)propyl)-2-(3-(methylamino)azetidin-1-yl)-6-(5-(thiophen-2-yl)pyrazolo[1,5-a]pyrimidin-3-yl)isonicotinamide], the IC50 was found to be 0.1 nM.

Turning to `CCN(CC)[C@@H](C)CNC(=O)c1cc(-c2cnn3ccc(-c4cccs4)nc23)nc(N2CC(N(C)C)C2)c1` [Example 206, (S)—N-(2-(diethylamino)propyl)-2-(3-(dimethylamino)azetidin-1-yl)-6-(5-(thiophen-2-yl)pyrazolo[1,5-a]pyrimidin-3-yl)isonicotinamide], the IC50 came out at 0.1 nM.

Consider `CCN(CC)[C@@H](C)CNC(=O)c1cc(-c2cnn3ccc(-c4cccs4)nc23)nc(N2CCNCC2)c1` [Example 207, (S)—N-(2-(diethylamino)propyl)-2-(piperazin-1-yl)-6-(5-(thiophen-2-yl)pyrazolo[1,5-a]pyrimidin-3-yl)isonicotinamide], for which the IC50 was determined as 0.21 nM.

Turning to `CCN(CC)[C@@H](C)CNC(=O)c1cc(-c2cnn3ccc(-c4cccs4)nc23)nc(N2CC(C(N)=O)C2)c1` [Example 208, (S)-2-(3-carbamoylazetidin-1-yl)-N-(2-(diethylamino)propyl)-6-(5-(thiophen-2-yl)pyrazolo[1,5-a]pyrimidin-3-yl)isonicotinamide], the concentration for half-maximal inhibition (IC50) worked out at 0.07 nM.

For `CCN(CC)[C@@H](C)CNC(=O)c1cc(-c2cnn3ccc(-c4cccs4)nc23)nc(N2CC[C@H](OC)C2)c1` [Example 209, N—((S)-2-(diethylamino)propyl)-2-((S)-3-methoxypyrrolidin-1-yl)-6-(5-(thiophen-2-yl)pyrazolo[1,5-a]pyrimidin-3-yl)isonicotinamide], the IC50 amounted to 0.17 nM.

As for `CCN(CC)[C@@H](C)CNC(=O)c1cc(-c2cnn3ccc(-c4cccs4)nc23)nc(N2CC(Oc3ccc(F)cc3)C2)c1` [Example 210, (S)—N-(2-(diethylamino)propyl)-2-(3-(4-fluorophenoxy)azetidin-1-yl)-6-(5-(thiophen-2-yl)pyrazolo[1,5-a]pyrimidin-3-yl)isonicotinamide], the IC50 turned out to be 18.2 nM.

For `CCN(CC)[C@@H](C)CNC(=O)c1cc(NCc2cc[nH]n2)nc(-c2cnn3ccc(-c4cccs4)nc23)c1` [Example 212, (S)-2-(((1H-pyrazol-3-yl)methyl)amino)-N-(2-(diethylamino)propyl)-6-(5-(thiophen-2-yl)pyrazolo[1,5-a]pyrimidin-3-yl)isonicotinamide], the IC50 is 0.3 nM.

Take `CCN(CC)[C@@H](C)CNC(=O)c1cc(NC2CC2)nc(-c2cnn3ccc(-c4cccs4)nc23)c1` [Example 213, (S)-2-(cyclopropylamino)-N-(2-(diethylamino)propyl)-6-(5-(thiophen-2-yl)pyrazolo[1,5-a]pyrimidin-3-yl)isonicotinamide]: the IC50 was determined as 0.18 nM.

In the case of `CCN(CC)[C@@H](C)CNC(=O)c1cc(-c2cnn3ccc(-c4cccs4)nc23)nc(N2CC(O)(CC)C2)c1` [Example 214, (S)—N-(2-(diethylamino)propyl)-2-(3-ethyl-3-hydroxyazetidin-1-yl)-6-(5-(thiophen-2-yl)pyrazolo[1,5-a]pyrimidin-3-yl)isonicotinamide], the IC50 is 0.18 nM.

Take `CCN(CC)[C@@H](C)CNC(=O)c1cc(-c2cnn3ccc(-c4cccs4)nc23)nc(N2CC(C(C)(C)O)C2)c1` [Example 215, (S)—N-(2-(diethylamino)propyl)-2-(3-(2-hydroxypropan-2-yl)azetidin-1-yl)-6-(5-(thiophen-2-yl)pyrazolo[1,5-a]pyrimidin-3-yl)isonicotinamide]: the IC50 turned out to be 0.22 nM.

Regarding `CCN(CC)[C@@H](C)CNC(=O)c1cc(-c2cnn3ccc(-c4cccs4)nc23)nc(N2CC(CO)C2)c1` [Example 216, (S)—N-(2-(diethylamino)propyl)-2-(3-(hydroxymethyl)azetidin-1-yl)-6-(5-(thiophen-2-yl)pyrazolo[1,5-a]pyrimidin-3-yl)isonicotinamide], the IC50 worked out at 0.1 nM.

As for `CCN(CC)[C@@H](C)CNC(=O)c1cc(-c2cnn3ccc(-c4cccs4)nc23)nc(N2CC(O)(C3CC3)C2)c1` [Example 217, (S)-2-(3-cyclopropyl-3-hydroxyazetidin-1-yl)-N-(2-(diethylamino)propyl)-6-(5-(thiophen-2-yl)pyrazolo[1,5-a]pyrimidin-3-yl)isonicotinamide], the IC50 turned out to be 0.18 nM.

`CCN(CC)[C@@H](C)CNC(=O)c1cc(NCCCOC)nc(-c2cnn3ccc(-c4cccs4)nc23)c1` [Example 218, (S)—N-(2-(diethylamino)propyl)-2-((3-methoxypropyl)amino)-6-(5-(thiophen-2-yl)pyrazolo[1,5-a]pyrimidin-3-yl)isonicotinamide]: the half-maximal inhibitory concentration (IC50) worked out at 0.17 nM.

Consider `CCN(CC)[C@@H](C)CNC(=O)c1cc(-c2cnn3ccc(-c4cccs4)nc23)nc(N2CC(O)(C(F)(F)F)C2)c1` [Example 219, (S)—N-(2-(diethylamino)propyl)-2-(3-hydroxy-3-(trifluoromethyl)azetidin-1-yl)-6-(5-(thiophen-2 yl)pyrazolo[1,5-a]pyrimidin-3-yl)isonicotinamide], for which the IC50 stood at 0.21 nM.

`CCN(CC)[C@@H](C)CNC(=O)c1cc(NCCCO)nc(-c2cnn3ccc(-c4cccs4)nc23)c1` [Example 220, (S)—N-(2-(diethylamino)propyl)-2-((3-hydroxypropyl)amino)-6-(5-(thiophen-2-yl)pyrazolo[1,5-a]pyrimidin-3-yl)isonicotinamide]: the IC50 is 0.11 nM.

On to `CCN(CC)[C@@H](C)CNC(=O)c1cc(NCCC(C)(C)O)nc(-c2cnn3ccc(-c4cccs4)nc23)c1` [Example 221, (S)—N-(2-(diethylamino)propyl)-2-((3-hydroxy-3-methylbutyl)amino)-6-(5-(thiophen-2-yl)pyrazolo[1,5-a]pyrimidin-3-yl)isonicotinamide], for which the IC50 is 0.13 nM.

Take `CCN(CC)[C@@H](C)CNC(=O)c1cc(NC2CCOCC2)nc(-c2cnn3ccc(-c4cccs4)nc23)c1` [Example 222, (S)—N-(2-(diethylamino)propyl)-2-((tetrahydro-2H-pyran-4-yl)amino)-6-(5-(thiophen-2-yl)pyrazolo[1,5-a]pyrimidin-3-yl)isonicotinamide]: the IC50 was determined as 0.17 nM.

As for `CCN(CC)[C@@H](C)CNC(=O)c1cc(NCCN2CCOCC2)nc(-c2cnn3ccc(-c4cccs4)nc23)c1` [Example 223, (S)—N-(2-(diethylamino)propyl)-2-((2-morpholinoethyl)amino)-6-(5-(thiophen-2-yl)pyrazolo[1,5-a]pyrimidin-3-yl)isonicotinamide], the IC50 is 0.14 nM.

As for `CCN(CC)[C@@H](C)CNC(=O)c1cc(NCCN2CC(F)(F)C2)nc(-c2cnn3ccc(-c4cccs4)nc23)c1` [Example 224, (S)—N-(2-(diethylamino)propyl)-2-((2-(3,3-difluoroazetidin-1-yl)ethyl)amino)-6-(5-(thiophen-2-yl)pyrazolo[1,5-a]pyrimidin-3-yl)isonicotinamide], the IC50 stood at 0.21 nM.

Take `CCN(CC)[C@@H](C)CNC(=O)c1cc(-c2cnn3ccc(-c4cccs4)nc23)nc(N2CC(C)(O)C2)c1` [Example 226, (S)—N-(2-(diethylamino)propyl)-2-(3-hydroxy-3-methylazetidin-1-yl)-6-(5-(thiophen-2-yl)pyrazolo[1,5-a]pyrimidin-3-yl)isonicotinamide]: the concentration for half-maximal inhibition (IC50) was found to be 0.1 nM.

Regarding `CCN(CC)[C@@H](C)CNC(=O)c1cc(-c2cnn3ccc(-c4cccs4)nc23)nc(N2CC(C)(OC)C2)c1` [Example 227, (S)—N-(2-(diethylamino)propyl)-2-(3-methoxy-3-methylazetidin-1-yl)-6-(5-(thiophen-2-yl)pyrazolo[1,5-a]pyrimidin-3-yl)isonicotinamide], the 50% inhibitory concentration (IC50) amounted to 0.07 nM.
